Measured values reported in the Kinase Knowledgebase extract (Sharma et al. 2016).

Target: PIK3CD (Human) (UniProt O00329)
Assay: Inhibition of PIK3CD Kinase Activity

Sequence of PIK3CD (Human) (O00329 whole entry, looked up): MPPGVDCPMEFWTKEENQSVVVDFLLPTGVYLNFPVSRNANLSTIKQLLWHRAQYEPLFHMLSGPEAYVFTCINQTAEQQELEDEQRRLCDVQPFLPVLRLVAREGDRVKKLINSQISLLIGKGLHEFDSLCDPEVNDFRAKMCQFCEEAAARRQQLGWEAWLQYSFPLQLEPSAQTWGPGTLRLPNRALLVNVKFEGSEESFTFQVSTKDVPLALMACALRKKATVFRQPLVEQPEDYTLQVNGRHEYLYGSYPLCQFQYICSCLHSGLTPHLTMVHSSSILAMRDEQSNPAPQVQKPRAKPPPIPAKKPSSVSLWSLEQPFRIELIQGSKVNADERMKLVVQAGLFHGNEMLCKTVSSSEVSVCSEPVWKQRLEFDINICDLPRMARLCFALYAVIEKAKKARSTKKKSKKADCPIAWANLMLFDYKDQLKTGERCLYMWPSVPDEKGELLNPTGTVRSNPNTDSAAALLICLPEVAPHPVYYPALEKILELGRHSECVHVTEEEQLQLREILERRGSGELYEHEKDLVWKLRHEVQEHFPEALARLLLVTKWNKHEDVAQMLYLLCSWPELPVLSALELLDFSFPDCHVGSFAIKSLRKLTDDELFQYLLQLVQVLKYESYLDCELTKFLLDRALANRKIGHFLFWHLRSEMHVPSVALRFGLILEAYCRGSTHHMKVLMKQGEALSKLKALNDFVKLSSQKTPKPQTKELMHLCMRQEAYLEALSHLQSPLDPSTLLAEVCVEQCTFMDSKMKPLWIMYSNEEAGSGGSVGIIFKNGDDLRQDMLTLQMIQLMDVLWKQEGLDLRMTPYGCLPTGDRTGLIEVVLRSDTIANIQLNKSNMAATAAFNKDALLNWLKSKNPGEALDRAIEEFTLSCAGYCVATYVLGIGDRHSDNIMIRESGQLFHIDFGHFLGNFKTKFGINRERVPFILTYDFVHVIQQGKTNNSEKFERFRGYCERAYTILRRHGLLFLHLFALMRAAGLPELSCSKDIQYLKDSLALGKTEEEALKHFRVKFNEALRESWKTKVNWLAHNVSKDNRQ

IC50: < 500 nM
SMILES: CCn1c(CN2CCC(N3CCOCC3=O)CC2)nc2c(N3CCOCC3)nc(-c3cccc4[nH]ccc34)nc21
